Test system: denuded oocytes (DO)
Assay: Oocyte assay, antagonistic testing, inhibition of FF-Mas induced maturation in denuded oocytes (DO assay)
Format: cell-based, mice (B6D2-F1, strain C57BL×DBA)
Conditions: FF-Mas 5 μM, compound tested 5 μM, control (FF-Mas alone) in brackets
Description: The meiosis inhibiting activity of the 22R-hydroxycholesta-8,14-diene derivatives of the invention is measured in an in vitro oocyte assay as the ability to inhibit the FF-Mas or 22S-hydroxy-FF-Mas induced maturation, in hypoxanthine media, in denuded oocytes (DO) or cumulus enclosed oocytes (CEO), respectively. Natural resumption of meiosis can be mimicked in vitro by addition of FF-Mas or other agonists to the culture medium containing hypoxanthine. The antagonistic activity of the compounds is measured as the ability to inhibit the FF-Mas or 22S-hydroxy-FF-Mas induced oocyte maturation in denuded oocytes or cumulus enclosed oocytes, respectively, in vitro. Ovaries are obtained from immature female mice (B6D2-F1, strain C57BL×DBA). At the age of 19, 20 or 21 days the mice are injected subcutaneously with a single dose of 20 IU follicle stimulating hormone (Humegon, Organon, The Netherlands) in saline. Forty-eight hours after follicle stimulating hormone injection mice are killed by cervical dislocation. The ovaries are removed, freed of extraneous tissue and placed in a multidish containing 0.5 ml preparation medium at 37° C. L-15 Leibovitz medium (Gibco, pH 7.3±0.1) supplemented with bovine serum albumin (3 mg·ml^−1), L-glutamine (0.23 mM), sodium pyruvate (2 mM) and hypoxanthine (4 mM) is used as preparation medium. The antral follicles of the ovaries are punctured under a dissecting microscope using two 27-gauge needles attached to two 1 ml syringes. […] At t=0 the number of oocytes with intact germinal vesicles (GV) or germinal vesicle break-down (GVBD) is counted under an inverted microscope with differential interference contrast equipment. […] At the end of the culture period the number of oocytes with GV or GVBD per group is counted. For statistical analysis the percentage germinal vesicle breakdown is calculated for each group in one block. These percentages are subjected to arcsin transformation, and differences between control and test compounds are analyzed by an ANOVA test for a randomized block design. […]

Row | Structure (SMILES) | % GVBD DO assay exp.
1 | CC(C)CC[C@@H](O)[C@@H](C)[C@H]1CC=C2C3=C(CC[C@@]21C)[C@@]1(C)CC[C@H](O)C(C)(C)[C@@H]1CC3 [Example 1, (3β,5α,20S,22R)-4,4-Dimethylcholesta-8,14-diene-3,22-diol] | 0(55) %
2 | CC(C)=CC[C@@H](O)[C@@H](C)[C@H]1CC=C2C3=C(CC[C@@]21C)[C@@]1(C)CC[C@H](O)C(C)(C)[C@@H]1CC3 [Example 2, (3β,5α,20S,22R)-4,4-Dimethylcholesta-8,14,24-triene-3,22-diol] | 0(90) %
